Assay results published in the supplement of paper PMC10307832.

What was measured:
Experiment in all cases: relative viability (nuclei count vs DMSO), 5 days (fraction); higher = more cells survive
[1] = compound: Cn1cc(-c2cnc3ccc4ccc(CS(=O)(=O)NCc5ccccn5)cc4c(=O)c3c2)cn1 [MK-8033] + CC(=O)c1c(C)c2cnc(Nc3ccc(N4CCNCC4)cn3)nc2n(C2CCCC2)c1=O [Palbociclib] (partner 0.5 µM)
Procedure, shortened: (§1)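 Relative viability is defined as nuclei in treated wells over nuclei in vehicle wells. Duplicate plates were run and medians reported. Lung cancer cell lines in 1536-well plates were dosed by pin tool one day after seeding, with one drug or with a fixed anchor-drug dose plus five library-drug doses (not always all listed) in √10 steps, and nuclei were counted after 5 days.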

[2] = compound: CC[C@@H](C)CNCC(=O)N1CCC2=C([C@@H]1COC3=CC=CC(=C3)C)C=CS2 [RU-SKI 43] + CS(=O)(=O)CCNCc1ccc(-c2ccc3ncnc(Nc4ccc(OCc5cccc(F)c5)c(Cl)c4)c3c2)o1 [Lapatinib] (partner 2 µM)
Procedure, shortened: as §1

[3] = compound: Cn1cc(-c2cnc3ccc4ccc(CS(=O)(=O)NCc5ccccn5)cc4c(=O)c3c2)cn1 [MK-8033] + CC(=O)Nc1cccc(-n2c(=O)n(C3CC3)c(=O)c3c(Nc4ccc(I)cc4F)n(C)c(=O)c(C)c32)c1 [Trametinib] (partner 0.02 µM)
Procedure, shortened: as §1

[4] = compound: Cn1cc(-c2cnc3ccc4ccc(CS(=O)(=O)NCc5ccccn5)cc4c(=O)c3c2)cn1 [MK-8033] + C[C@@H](Oc1cc(-c2cnn(C3CCNCC3)c2)cnc1N)c1c(Cl)ccc(F)c1Cl [Crizotinib] (partner 1 µM)
Procedure, shortened: as §1

Cell Line	relative viability ([1]; first compound 0.02 µM)	relative viability ([1]; first compound 0.06325 µM)	relative viability ([1]; first compound 0.2 µM)	relative viability ([1]; first compound 0.6325 µM)	relative viability ([1]; first compound 2 µM)	relative viability ([2]; first compound 0.1 µM)	relative viability ([2]; first compound 0.3162 µM)	relative viability ([2]; first compound 1 µM)	relative viability ([2]; first compound 3.162 µM)	relative viability ([2]; first compound 10 µM)	relative viability ([3]; first compound 0.02 µM)	relative viability ([3]; first compound 0.06325 µM)	relative viability ([3]; first compound 0.2 µM)	relative viability ([3]; first compound 0.6325 µM)	relative viability ([3]; first compound 2 µM)	relative viability ([4]; first compound 0.02 µM)	relative viability ([4]; first compound 0.06325 µM)	relative viability ([4]; first compound 0.2 µM)	relative viability ([4]; first compound 0.6325 µM)	relative viability ([4]; first compound 2 µM)
BEN	0.445	0.512	0.435	0.484	0.461	0.691	0.607	0.961	0.589	0.684	1.07	0.943	0.964	1.03	0.991	0.895	0.763	0.838	0.89	0.773
NCI-H322M	0.531	0.443	0.45	0.49	0.433	0.586	0.635	0.671	0.635	0.604	0.527	0.565	0.488	0.585	0.476	0.855	0.778	0.835	0.939	0.954
LU99A	0.414	0.343	0.398	0.409	0.39	0.839	1.14	0.968	0.956	0.925	0.582	0.48	0.492	0.582	0.503	0.692	0.542	0.619	0.491	0.525
NCI-H2405	0.515	0.505	0.512	0.514	0.555	1.01	0.964	1.03	1.04	0.956	0.601	0.619	0.496	0.603	0.667	0.809	0.783	0.842	0.871	0.811
